Measured values from patent publication EP1075277B2, “METHODS FOR DETECTING AND INHIBITING ANGIOGENESIS” (The Regents of the University of California, priority 1998, dated 2012).
“Also recorded” adds a separate entry of the source.

Key:
[1] = tested on: integrin α5β1 positive cells, including α5β1 HT29 colon carcinoma cells, CEF's, and HUVEC's; test: Cell adhesion assay on fibronectin, results in words for the α5β1 positive cells together; format: cell-based; details: antibodies 50 µg/ml, cyclic peptides 10 µM, SJ749 0-10 µM
From the text: (§1) HT29 integrin α5β1 cells, integrin α5β1 colon carcinoma cells (Varner et al., Mol. Biol. Cell 6:725-740 (1995)), and chick embryo fibroblasts (CEF's) were maintained in DMEM high glucose supplemented with 10% fetal bovine serum (FBS) and gentamycin. Human umbilical vein endothelial cells (HWEC's) were maintained in M199 medium containing sodium bicarbonate, HEPES, heparin, endothelial cell growth supplement, 20% FBS and gentamycin. Culture media and reagents were from Irvine Scientific (Irvine, CA).
(§2) The wells of 48 well culture dishes (Costar, Inc.) were coated with 1 µg/ml vitronectin, 2 µg/ml fibronectin (chick embryo fibroblasts and HUVEC's) or 10 µg/ml fibronectin (HT29-α5^+ cells) for 1 hr at 37°C, then blocked with 2% heat denatured BSA in PBS for 1 hr. […]
(§3) Cells were allowed to adhere to dishes for 20 min at 37°C. […] Crystal violet was extracted by incubation for 15 min in 10% acetic acid and absorbance at 562 nm determined as an indicator of number of cells bound. […]

[2] = tested on: α5β1 HT29 colon carcinoma cells, CEF's, and HUVEC's; test: Cell adhesion assay on vitronectin; format: cell-based; details: 1 µg/ml vitronectin coat
From the text: as §1, §2, §3

[3] = tested on: blood vessel branch points in chorioallantoic membranes (CAM's); test: In ovo chick chorioallantoic membrane (CAM) angiogenesis assay; format: in vivo; details: for effect on bFGF-induced angiogenesis (in words): bFGF stimulated CAM
From the text: Ten day old embryonated chicken eggs (McIntyre Poultry; Ramona CA) were candled to illuminate blood vessels under the shell and an area with a minimum of small blood vessels is identified. The CAM was dropped away from the eggshell in this area by grinding a small hole in the mineralized shell and applying pressure to the underlying inner shell membrane. This procedure caused an air pocket to shift from the wide end of the egg to the identified area and forcing a circular region of the CAM approximately 2 cm in diameter to drop away from the shell. A window was cut in the egg shell and a cortisone acetate pre-treated filter disc 5 mm in diameter that had been saturated in 1 µg/ml bFGF, VEGF, TNFα, IL-8 (Genzyme, Inc.; Cambridge MA) or saline was placed on the CAM. The window in the shell was sealed with adhesive tape and the egg was incubated for four days.
Anti-fibronectin antibodies (25 µg in 25 µl) also were applied topically to the CAM.
Fibronectin, vitronectin and fibronectin fragments (59 pmol in a final volume of 25 µl) were applied to stimulated or unstimulated CAM's. Peptide or small molecule antagonists of α5β1 (at a final serum concentration of 0-25 µM) also were injected intravenously into the chick circulation 24 hr later. CAM's were harvested on the fourth day of stimulation. Blood vessel branch points in the 5 mm filter disk area were counted at 30 X magnification in a blinded fashion as a size-independent quantitative indicator of vascular sprouting in response to growth factors. Angiogenesis is characterized by the sprouting of new vessels in response to growth factors. Thus, counting of blood vessel branch points is a useful quantitative means of obtaining an angiogenic index (Brooks et al., In "Methods in Molecular Biology" (Humana Press 1999). At least ten embryos were used per treatment group. Each experiment was performed a minimum of three times.
Data was evaluated in terms of average number of blood vessel branch points per treatment group +/- standard error of measurement. Statistical analyses were performed using Student's t-test. […]

[4] = tested on: α5^+ HT29 cells; test: Cell adhesion assay on fibronectin, HT29-α5+ cells; format: cell-based; details: Homo sapiens, HT-29, 0-10 µM SJ749, Figure 1, read-out: half maximal inhibitory concentration, adhesion to fibronectin
From the text: as §1, §2, §3

[5] = tested on: HUVEC's; test: Cell migration assay (transwell); format: cell-based, human; details: 4 hr at 37°C
Method: The Lower side of 8 µm pore transwell inserts (Costar, Inc.) were coated with 2 µg/ml of fibronectin, collagen (Collaborative Biomedical Products; Bedford MA) or no protein for 1 hr and were blocked with 2% BSA in PBS for 1 hr. The inserts then were placed into 24 well culture dishes containing 500 µl migration buffer in the lower chamber. Twenty-five thousand HUVEC's in 50 µl of migration buffer (HEPES buffered M199 medium containing 1% BSA, 2 mM MgCl2, 2 mM CaCl2 and 0.2 mM MnCl2) were added to the upper chamber of duplicate inserts containing 50 µl of a solution of 50 µg/ml of anti-α5β1 function blocking antibody (NKI-SAM-1, JBS5 or IIA1), 50 µ/ml of anti-α5β1 non-function blocking antibody (HA5 or VC5), or 50 µg/ml of LM609 (an anti-αVβ3 function blocking antibody) in migration buffer, or migration buffer alone.
Cells were allowed to migrate from the upper to the lower chamber for 4 hr at 37°C. Nonmigratory cells were removed from the upper surface by wiping the upper side with an absorbant tip, and cells that had migrated to the lower side of the transwell insert were fixed for 15 min with 3.7% paraformaldehyde in PBS, then stained with a 2% crystal violet solution. After extensive water washing to remove excess crystal violet, the number of cells that had migrated were counted in three representative high power (200X) fields per insert. […]

[6] = target: T1, α5β1 receptor purified from human placenta (Homo sapiens, UniProt P05556+P08648); test: Integrin receptor ligand binding assay, α5β1 / fibronectin; details: biotinylated fibronectin
T1 construct: α5β1 receptor purified from human placenta; purchased Chemicon International; host or cells: human placenta (tissue-purified)
T1 sequence (P08648 42-894 limits assumed): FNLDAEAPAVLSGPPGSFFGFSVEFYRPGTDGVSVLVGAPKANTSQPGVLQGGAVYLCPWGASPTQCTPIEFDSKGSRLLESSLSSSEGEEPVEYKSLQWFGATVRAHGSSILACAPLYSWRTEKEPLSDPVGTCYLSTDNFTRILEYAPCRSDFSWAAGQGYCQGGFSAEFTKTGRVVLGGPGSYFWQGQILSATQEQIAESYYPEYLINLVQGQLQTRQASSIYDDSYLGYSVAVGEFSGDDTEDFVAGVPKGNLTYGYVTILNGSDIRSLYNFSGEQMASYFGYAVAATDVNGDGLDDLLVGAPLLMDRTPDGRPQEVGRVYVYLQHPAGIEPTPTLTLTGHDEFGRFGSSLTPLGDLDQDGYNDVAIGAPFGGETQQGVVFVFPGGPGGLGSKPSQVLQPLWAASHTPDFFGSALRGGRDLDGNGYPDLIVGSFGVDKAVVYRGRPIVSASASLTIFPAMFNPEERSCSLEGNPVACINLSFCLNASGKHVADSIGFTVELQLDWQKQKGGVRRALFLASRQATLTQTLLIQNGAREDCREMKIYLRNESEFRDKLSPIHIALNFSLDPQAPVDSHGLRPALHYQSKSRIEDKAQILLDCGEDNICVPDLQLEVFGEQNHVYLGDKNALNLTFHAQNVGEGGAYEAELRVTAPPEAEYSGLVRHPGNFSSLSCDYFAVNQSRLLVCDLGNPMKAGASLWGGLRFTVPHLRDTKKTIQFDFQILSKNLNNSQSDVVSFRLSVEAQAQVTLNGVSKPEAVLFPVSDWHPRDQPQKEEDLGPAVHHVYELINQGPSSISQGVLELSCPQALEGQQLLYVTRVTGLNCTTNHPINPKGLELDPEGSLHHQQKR
T1 sequence (P08648 895-1049 partner limits assumed): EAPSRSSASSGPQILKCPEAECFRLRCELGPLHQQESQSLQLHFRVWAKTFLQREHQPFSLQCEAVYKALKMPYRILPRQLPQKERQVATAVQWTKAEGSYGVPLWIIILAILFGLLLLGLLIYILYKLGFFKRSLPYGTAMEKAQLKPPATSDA
T1 sequence (P05556 21-798): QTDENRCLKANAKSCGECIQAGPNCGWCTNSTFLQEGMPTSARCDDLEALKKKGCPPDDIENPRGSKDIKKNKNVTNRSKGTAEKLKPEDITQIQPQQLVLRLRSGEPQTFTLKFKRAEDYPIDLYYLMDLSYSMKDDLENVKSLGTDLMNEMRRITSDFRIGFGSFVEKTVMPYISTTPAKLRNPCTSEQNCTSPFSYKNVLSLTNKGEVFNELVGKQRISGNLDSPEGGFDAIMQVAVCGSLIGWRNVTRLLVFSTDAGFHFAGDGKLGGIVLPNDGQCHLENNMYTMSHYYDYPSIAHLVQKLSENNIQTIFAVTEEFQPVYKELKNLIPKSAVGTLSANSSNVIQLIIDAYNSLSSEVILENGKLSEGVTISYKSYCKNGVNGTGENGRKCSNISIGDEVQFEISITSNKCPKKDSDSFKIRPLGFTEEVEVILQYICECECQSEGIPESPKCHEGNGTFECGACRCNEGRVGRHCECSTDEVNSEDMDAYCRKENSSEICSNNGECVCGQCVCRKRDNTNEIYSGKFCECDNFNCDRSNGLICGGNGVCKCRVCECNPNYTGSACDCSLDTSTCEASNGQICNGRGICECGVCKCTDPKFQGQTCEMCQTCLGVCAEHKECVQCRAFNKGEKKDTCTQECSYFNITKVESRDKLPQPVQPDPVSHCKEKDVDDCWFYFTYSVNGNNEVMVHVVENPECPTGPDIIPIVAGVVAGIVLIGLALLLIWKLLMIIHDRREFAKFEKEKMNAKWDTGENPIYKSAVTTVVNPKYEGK
Method: (§4) Integrin αVβ3 and α5β1 receptor purified from human placenta were obtained from Chemicon International. Platelet integrin αIIbβ3 was purified from platelets according to established procedures. Receptors were coated (100 µl/well) on Costar (3590) high capacity binding plates overnight at 4°C. Coating solution was discarded and plates were washed once with blocking/binding (B/B) buffer (50 mM Tris HCl, pH 7.4, 100 mM NaCl, 2mM CaCl2, 1 mM MgCl2, 1 mM MnCl2 and 1% BSA).
(§5) One hundred ten microliters of B/B buffer was applied for 60 min at RT. Thirty µl of biotinylated extracellular matrix protein ligand (fibronectin for integrin α5β1, vitronectin for integrin αVβ3 and fibrinogen for integrin αIIbβ3) plus 50 µl of either SJ749 in B/B buffer or B/B buffer alone were added to each well, and incubated for 25 min at RT. Plates were washed twice with B/B buffer and incubated 1 hr at RT, with anti-biotin alkaline phosphatase (100 µl/well) in B/B buffer. Finally, plates were washed twice with B/B followed by the addition of 100 µl of phosphatase substrate (1.5 mg/ml). Reaction was stopped by adding 2N NaOH (25 µl/well), and the developed color was read at 405 nm.

[7] = target: T2, Integrin αVβ3 (Homo sapiens, UniProt P05106+P06756); test: Integrin receptor ligand binding assay, αVβ3 / vitronectin; details: biotinylated vitronectin for αVβ3
T2 construct: Integrin αVβ3 and α5β1 receptor purified from human placenta; purchased Chemicon International; host or cells: human placenta (tissue-purified, as the sentence is read)
T2 sequence (P06756 31-889 limits assumed): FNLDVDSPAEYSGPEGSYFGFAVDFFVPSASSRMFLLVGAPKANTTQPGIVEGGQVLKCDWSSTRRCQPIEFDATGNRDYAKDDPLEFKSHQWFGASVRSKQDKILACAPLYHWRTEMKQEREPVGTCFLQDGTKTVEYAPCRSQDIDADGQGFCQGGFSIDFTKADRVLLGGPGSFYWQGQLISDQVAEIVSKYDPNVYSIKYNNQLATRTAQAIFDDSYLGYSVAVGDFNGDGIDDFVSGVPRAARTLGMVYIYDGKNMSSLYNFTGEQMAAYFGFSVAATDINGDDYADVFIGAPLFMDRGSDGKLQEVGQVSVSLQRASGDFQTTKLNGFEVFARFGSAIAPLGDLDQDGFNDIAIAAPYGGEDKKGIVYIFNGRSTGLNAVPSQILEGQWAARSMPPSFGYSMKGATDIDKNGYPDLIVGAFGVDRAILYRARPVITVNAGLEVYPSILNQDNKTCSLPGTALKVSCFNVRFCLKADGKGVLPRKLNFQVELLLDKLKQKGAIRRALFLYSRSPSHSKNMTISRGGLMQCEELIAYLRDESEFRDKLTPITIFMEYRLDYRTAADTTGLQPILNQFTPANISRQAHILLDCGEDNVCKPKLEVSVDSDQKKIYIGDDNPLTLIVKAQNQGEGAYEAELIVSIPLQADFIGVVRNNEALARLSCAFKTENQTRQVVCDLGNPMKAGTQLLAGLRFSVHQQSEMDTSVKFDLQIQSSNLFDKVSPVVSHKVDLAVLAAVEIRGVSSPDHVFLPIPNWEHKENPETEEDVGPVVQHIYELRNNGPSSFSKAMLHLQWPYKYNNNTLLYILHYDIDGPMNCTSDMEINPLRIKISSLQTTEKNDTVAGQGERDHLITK
T2 sequence (P06756 891-1048 partner limits assumed): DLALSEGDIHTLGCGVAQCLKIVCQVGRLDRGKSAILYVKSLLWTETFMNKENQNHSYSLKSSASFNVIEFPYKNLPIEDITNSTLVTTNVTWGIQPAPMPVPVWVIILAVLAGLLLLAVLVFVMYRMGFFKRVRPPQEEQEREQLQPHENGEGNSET
T2 sequence (P05106 27-788): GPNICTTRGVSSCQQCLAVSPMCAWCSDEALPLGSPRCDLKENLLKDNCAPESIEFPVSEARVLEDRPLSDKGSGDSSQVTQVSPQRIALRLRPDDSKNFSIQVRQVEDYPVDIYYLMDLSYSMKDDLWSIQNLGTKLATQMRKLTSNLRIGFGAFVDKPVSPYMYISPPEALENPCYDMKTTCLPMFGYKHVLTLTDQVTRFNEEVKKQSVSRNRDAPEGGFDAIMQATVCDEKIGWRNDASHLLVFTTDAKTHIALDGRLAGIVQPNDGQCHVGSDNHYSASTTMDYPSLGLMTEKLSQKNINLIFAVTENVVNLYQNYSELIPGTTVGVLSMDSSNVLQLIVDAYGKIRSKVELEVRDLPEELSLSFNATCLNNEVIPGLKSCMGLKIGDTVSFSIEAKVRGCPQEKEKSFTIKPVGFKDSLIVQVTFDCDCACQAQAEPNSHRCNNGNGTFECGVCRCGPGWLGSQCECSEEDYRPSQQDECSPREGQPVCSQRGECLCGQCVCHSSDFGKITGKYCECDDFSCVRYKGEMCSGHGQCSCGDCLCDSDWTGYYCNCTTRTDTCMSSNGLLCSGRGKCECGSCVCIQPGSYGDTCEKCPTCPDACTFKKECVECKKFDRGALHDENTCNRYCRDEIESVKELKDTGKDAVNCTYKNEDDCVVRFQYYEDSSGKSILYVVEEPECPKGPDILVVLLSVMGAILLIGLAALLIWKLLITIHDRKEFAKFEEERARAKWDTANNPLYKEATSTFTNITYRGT
Method: as §4, §5

[8] = tested on: HT29 colon carcinoma cells lacking α5β1 expression; test: Chick CAM tumor assay, HT29; format: in vivo; details: antibody 25 µg topically; for effect on tumor size (in words): peptide or small molecule 25 µM intravenously
Method: The chick CAM tumor assay was performed by placing ten million tumor cells on the surface of a CAM, and culturing the cells for one week. The resulting tumors were excised and cut into 50 mg fragments. […] Forty-eight hours later, CAM's were excised from the egg and the number of blood vessels entering the tumors were counted (as vessel branch points) .
Data was presented as mean blood vessel number per treatment group (+/- standard error of measurement). Each treatment group incorporated at least ten tumors per experiment. Representative tumors were photographed at 10X magnification. Tumors were excised from the egg and tumor weights were determined for each tumor. Data was presented as mean tumor weight per treatment group (+/- standard error of measurement). Statistical analyses were performed using Student's t-test.
HT29 colon carcinoma cells lacking α5β1 expression were grown on the CAM's of 10-day old embryos. These tumor cells secrete several angiogenic growth factors, including VEGF, TGFα, TGFβ, TNFα, and IL-8 (Anzano et al., Cancer Res. 49:2898-2904 (1989); Varner et. al., supra, 1995; Ellis et al., J. Biol. Chem. 273:1052-1057 (1998)). Integrin α5β1 negative tumor cells were used to distinguish the potential anti-tumor effects from anti-vasculature effects of integrin α5β1 antagonists.

Compound	effect on cell adhesion to fibronectin (in words) [1]	effect on cell attachment to vitronectin (in words) [2]	effect on VEGF-induced angiogenesis (in words) ([3]; VEGF stimulated CAM)	effect on bFGF-induced angiogenesis (in words) [3]	IC50 [4] [nM]	effect on endothelial cell migration on fibronectin (in words) [5]	effect on endothelial cell migration on other matrix proteins, including collagen (in words) [5]	effect on ligand binding to α5β1 (in words) [6]	effect on ligand binding to αVβ3 and other integrins (in words) [7]	tumors smaller than control treated tumors ([8]; peptide or SJ749 25 µM final serum concentration intravenously) [%]	effect on tumor size (in words) [8]
Cc1cc(C)c(S(=O)(=O)N[C@@H](CNC(=O)C2=NOC3(C2)CC(CNc2ccccn2)N(C(=O)OCc2ccccc2)C3)C(=O)O)c(C)c1 (stereo partly drawn) [SJ749]	blocked the adhesion of these cells to fibronectin in a concentration-dependent manner; also recorded: inhibitory effect	ineffective in blocking cell attachment to vitronectin or other extracellular matrix ligands	did not block VEGF angiogenesis	blocked bFGF-induced angiogenesis on chick CAM's in a dose-dependent manner when applied either topically or systemically; also recorded: dose dependent inhibitory effect; also recorded: reduced or inhibited angiogenesis in a dose dependent manner	800	highly effective in blocking endothelial cell migration on fibronectin	but not on other matrix proteins such as collagen	selectively inhibited ligand binding to α5β1; also recorded: interfered with α5β1 binding to fibronectin	substantially less effective in blocking ligand binding to αVβ3 and other integrins	51	induced tumor regression on the CAM
CATAERWRC	little effect on cell adhesion to either fibronectin or vitronectin	little effect on cell adhesion to either fibronectin or vitronectin	–	did not inhibit angiogenesis	–	–	–	–	–	–	continued to increase in size
